{
  "source": "ChEMBL document CHEMBL1811903",
  "about": "“Protective role of 14-deoxy-11,12-didehydroandrographolide, a noncytotoxic analogue of andrographolide, in allergic airway inflammation” (J Nat Prod, 2011)",
  "type_in_all_cases": "cell-based",
  "key": {"RBL-2H3 [1]": {"test_system": "RBL-2H3", "assay": "Cytotoxicity against rat RBL2H3 cells assessed as reduction in cell viability after 24 hrs by MTS assay", "settings": "rbl-2h3, 24 h"}, "A549 [2]": {"test_system": "A549", "assay": "Cytotoxicity against human A549 cells assessed as reduction in cell viability after 48 hrs by MTS assay", "settings": "a549, 48 h"}, "RBL-2H3 [3]": {"test_system": "RBL-2H3", "assay": "Cytotoxicity against rat RBL2H3 cells assessed as reduction in cell viability at 3 to 120 uM by MTS assay", "settings": "rbl-2h3, 120 µM, TDE = time-dependent effect"}, "A549 [4]": {"test_system": "A549", "assay": "Cytotoxicity against human A549 cells assessed as reduction in cell viability at 3 to 120 uM by MTS assay", "settings": "a549, 120 µM, TDE = time-dependent effect"}, "[5]": {"assay": "Cytotoxicity against human BEAS2B cells assessed as reduction in cell viability at 3 to 120 uM by MTS assay", "settings": "beas-2b, TDE = time-dependent effect"}, "[6]": {"assay": "Cytotoxicity against human BEAS2B cells assessed as reduction in cell viability after 24 hrs by MTS assay", "settings": "beas-2b"}, "A549 [7]": {"test_system": "A549", "assay": "Cytotoxicity against human A549 cells assessed as reduction in cell viability after 24 hrs by MTS assay", "settings": "a549, 24 h"}, "RBL-2H3 [8]": {"test_system": "RBL-2H3", "assay": "Cytotoxicity against rat RBL2H3 cells assessed as reduction in cell viability after 48 hrs by MTS assay", "settings": "rbl-2h3, 48 h"}, "[9]": {"assay": "Cytotoxicity against human BEAS2B cells assessed as reduction in cell viability after 48 hrs by MTS assay", "settings": "beas-2b"}},
  "data": [
    {"smiles": "C=C1CC[C@@H]2[C@](C)(CO)[C@H](O)CC[C@@]2(C)[C@@H]1C/C=C1/C(=O)OC[C@H]1O", "note": "[ANDROGRAPHOLIDE]", "values": [
      {"measurement": "Activity", "setting": "RBL-2H3 [1]", "value": "Dose-dependent effect"},
      {"measurement": "Activity", "setting": "A549 [2]", "value": "Dose-dependent effect"},
      {"measurement": "Activity", "setting": "RBL-2H3 [3]", "value": "tde"},
      {"measurement": "Activity", "setting": "A549 [4]", "value": "tde"},
      {"measurement": "Activity", "setting": "[5]", "value": "tde"},
      {"measurement": "Activity", "setting": "[6]", "value": "Dose-dependent effect"},
      {"measurement": "Activity", "setting": "A549 [7]", "value": "Dose-dependent effect"},
      {"measurement": "Activity", "setting": "RBL-2H3 [8]", "value": "Dose-dependent effect"},
      {"measurement": "Activity", "setting": "[9]", "value": "Dose-dependent effect"}
    ]}
  ]
}
